Reference: ChEMBL document CHEMBL1201862, “PubChem BioAssay data set” (2004)
Active and inactive are the calls of the source.

How the values were obtained:
[1] = HPDE-C7 pancreatic duct cell viability loss – fluorescence, HTS (AID 430); type: functional, cell-based; conditions: Homo sapiens
[2] = viability of PTEN-deleted HCT116 cells – cell-based, HCT116 PTEN knockout, dose response (AID 1047); type: functional;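 note: HCT116 colon tumor cells with PTEN knocked out; cells exposed to compound for 60 hours before readout; potency for loss of cell viability measured by luminescence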
[3] = viability loss of HPDE-C7K cells – cell-based, fluorescence, HTS, primary screen (AID 431); type: functional; conditions: Homo sapiens
[4] = viability of HCT116 lacking mutant beta-catenin – cell-based, human colon tumor, dose response (AID 1045); type: functional;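 note: HCT116 colon tumor cells with beta catenin knocked out; cells exposed to compound for 60 hours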
cells [5] = type: functional, cell-based
cells [6] = type: functional, cell-based; remark: listed apart in the source
Galanin receptor type 3 = target: T1, Galanin receptor type 3 (Homo sapiens, UniProt O60755); assay: Fluorescence-based cell-based primary high throughput dose response assay to identify antagonists of the Galanin Receptor 3 (GalR3).; type: functional
T1 sequence (O60755 whole entry): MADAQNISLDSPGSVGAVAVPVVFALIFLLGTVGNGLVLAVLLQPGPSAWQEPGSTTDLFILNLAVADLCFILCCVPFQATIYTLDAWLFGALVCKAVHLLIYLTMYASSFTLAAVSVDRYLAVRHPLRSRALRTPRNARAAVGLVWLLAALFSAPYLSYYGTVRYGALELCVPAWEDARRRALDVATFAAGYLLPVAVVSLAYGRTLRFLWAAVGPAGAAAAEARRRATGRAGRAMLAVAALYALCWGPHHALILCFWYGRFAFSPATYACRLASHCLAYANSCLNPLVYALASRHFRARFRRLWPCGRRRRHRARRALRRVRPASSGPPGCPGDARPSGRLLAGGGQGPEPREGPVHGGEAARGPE

cells [7] = type: functional, cell-based; conditions: HEK-CNG
Nonstructural protein 1 = Nonstructural protein 1 (Influenza A virus, UniProt Q194T2); type: functional, Influenza A virus (A/California/07/2009(H1N1))
Nonstructural protein 1, sequence (Q194T2 whole entry): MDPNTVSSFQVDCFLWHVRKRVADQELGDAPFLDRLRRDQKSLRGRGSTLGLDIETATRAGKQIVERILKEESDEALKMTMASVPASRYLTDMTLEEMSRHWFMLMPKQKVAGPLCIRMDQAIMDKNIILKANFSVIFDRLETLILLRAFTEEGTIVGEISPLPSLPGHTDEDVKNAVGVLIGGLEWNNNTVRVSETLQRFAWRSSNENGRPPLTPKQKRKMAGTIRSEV

Fatty acid synthase [8] = target: T2, Fatty acid synthase (Homo sapiens, UniProt P49327); assay: inhibition of human FAS-TE enzyme activity – biochemical, kinetic fluorescence intensity, dose response (AID 624326); type: functional;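 note: rate of fluorescence rise from hydrolysis of a fluorogenic O-methyl fluorescein ester substrate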
T2 sequence (P49327 whole entry): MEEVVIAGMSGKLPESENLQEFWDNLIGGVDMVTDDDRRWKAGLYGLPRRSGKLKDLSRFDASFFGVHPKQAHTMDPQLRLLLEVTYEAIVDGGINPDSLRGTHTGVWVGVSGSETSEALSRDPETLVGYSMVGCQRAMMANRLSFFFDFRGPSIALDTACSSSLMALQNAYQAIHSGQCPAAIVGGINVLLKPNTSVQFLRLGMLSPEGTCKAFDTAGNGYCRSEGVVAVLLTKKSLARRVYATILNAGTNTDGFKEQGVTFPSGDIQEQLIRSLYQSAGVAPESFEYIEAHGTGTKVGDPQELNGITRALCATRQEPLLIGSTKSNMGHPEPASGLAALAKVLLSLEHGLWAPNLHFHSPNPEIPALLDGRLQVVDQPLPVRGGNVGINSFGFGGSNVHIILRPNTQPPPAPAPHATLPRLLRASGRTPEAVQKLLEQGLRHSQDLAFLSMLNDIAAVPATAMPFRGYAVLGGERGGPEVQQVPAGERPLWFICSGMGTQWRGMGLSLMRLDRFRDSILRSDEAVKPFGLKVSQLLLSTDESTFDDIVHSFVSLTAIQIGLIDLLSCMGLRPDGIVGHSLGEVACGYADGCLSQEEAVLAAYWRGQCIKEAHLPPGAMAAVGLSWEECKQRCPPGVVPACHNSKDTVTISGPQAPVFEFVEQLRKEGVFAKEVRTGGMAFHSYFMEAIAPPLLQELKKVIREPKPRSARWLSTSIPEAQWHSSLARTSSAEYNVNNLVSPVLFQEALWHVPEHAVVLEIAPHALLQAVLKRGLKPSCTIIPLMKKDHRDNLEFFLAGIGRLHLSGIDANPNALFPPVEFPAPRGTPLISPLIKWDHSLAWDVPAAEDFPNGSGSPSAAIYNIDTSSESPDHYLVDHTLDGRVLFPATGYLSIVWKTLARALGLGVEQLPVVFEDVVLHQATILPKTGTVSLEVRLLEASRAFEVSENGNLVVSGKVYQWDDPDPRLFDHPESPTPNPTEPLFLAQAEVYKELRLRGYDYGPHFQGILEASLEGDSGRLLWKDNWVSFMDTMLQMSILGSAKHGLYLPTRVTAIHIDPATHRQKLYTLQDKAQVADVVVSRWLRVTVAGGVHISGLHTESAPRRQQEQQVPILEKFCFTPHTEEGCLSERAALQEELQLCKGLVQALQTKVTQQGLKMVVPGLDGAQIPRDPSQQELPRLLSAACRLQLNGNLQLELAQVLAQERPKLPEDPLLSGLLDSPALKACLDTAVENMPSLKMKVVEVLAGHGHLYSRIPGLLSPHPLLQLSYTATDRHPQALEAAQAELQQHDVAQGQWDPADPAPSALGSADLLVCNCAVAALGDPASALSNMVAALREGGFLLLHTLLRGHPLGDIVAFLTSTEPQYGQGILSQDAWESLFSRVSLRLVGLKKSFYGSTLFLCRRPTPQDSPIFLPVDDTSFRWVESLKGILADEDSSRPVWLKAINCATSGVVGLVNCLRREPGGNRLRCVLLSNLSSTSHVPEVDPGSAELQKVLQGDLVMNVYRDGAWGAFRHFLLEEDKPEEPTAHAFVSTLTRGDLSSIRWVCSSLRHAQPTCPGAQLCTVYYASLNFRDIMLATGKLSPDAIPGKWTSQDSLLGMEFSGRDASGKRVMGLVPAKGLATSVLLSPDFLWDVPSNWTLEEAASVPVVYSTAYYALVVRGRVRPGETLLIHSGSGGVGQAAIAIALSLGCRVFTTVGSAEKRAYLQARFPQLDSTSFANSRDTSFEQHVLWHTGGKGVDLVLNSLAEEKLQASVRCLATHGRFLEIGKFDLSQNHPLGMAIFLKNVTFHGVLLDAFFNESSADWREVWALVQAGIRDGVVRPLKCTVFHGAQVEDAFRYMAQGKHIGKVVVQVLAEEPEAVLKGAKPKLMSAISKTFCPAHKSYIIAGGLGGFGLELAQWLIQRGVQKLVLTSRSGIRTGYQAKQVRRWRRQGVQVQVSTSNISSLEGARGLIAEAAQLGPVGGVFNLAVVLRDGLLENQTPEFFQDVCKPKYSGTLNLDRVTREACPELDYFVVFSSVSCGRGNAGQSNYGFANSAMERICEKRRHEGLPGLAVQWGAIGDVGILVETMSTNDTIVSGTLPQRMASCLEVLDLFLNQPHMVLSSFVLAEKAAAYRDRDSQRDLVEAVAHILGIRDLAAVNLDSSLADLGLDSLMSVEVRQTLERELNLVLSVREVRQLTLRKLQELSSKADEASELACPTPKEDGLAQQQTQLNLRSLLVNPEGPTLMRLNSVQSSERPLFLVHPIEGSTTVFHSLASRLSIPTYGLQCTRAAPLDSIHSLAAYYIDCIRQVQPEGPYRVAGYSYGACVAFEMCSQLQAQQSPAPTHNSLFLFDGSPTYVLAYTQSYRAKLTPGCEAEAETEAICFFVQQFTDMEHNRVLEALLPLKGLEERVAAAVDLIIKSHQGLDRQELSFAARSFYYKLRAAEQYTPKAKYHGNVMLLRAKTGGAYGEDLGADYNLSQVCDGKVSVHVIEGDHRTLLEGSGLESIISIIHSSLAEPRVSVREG

Fatty acid synthase [9] = target: T2, Fatty acid synthase; assay: inhibition of human FAS-TE enzyme activity – biochemical, endpoint fluorescence intensity, uHTS hits, dose response (AID 624327); type: functional;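 note: fluorescence from hydrolysis of an O-methyl fluorescein acyl ester substrate by the enzyme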
[10] = target: T3, Heat shock factor protein 1 (Mus musculus, UniProt P38532); assay: decrease of HSF1-responsive luciferase luminescence – cell-based, NIH3T3, dose retest, confirmation (AID 2382); type: functional;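 note: NIH3T3 fibroblasts with HSF1-driven luciferase reporter stressed by proteasome inhibitor MG132; luminescence from HSF1-driven luciferase expression after 8 hours of MG132 stress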
T3 sequence (P38532 whole entry): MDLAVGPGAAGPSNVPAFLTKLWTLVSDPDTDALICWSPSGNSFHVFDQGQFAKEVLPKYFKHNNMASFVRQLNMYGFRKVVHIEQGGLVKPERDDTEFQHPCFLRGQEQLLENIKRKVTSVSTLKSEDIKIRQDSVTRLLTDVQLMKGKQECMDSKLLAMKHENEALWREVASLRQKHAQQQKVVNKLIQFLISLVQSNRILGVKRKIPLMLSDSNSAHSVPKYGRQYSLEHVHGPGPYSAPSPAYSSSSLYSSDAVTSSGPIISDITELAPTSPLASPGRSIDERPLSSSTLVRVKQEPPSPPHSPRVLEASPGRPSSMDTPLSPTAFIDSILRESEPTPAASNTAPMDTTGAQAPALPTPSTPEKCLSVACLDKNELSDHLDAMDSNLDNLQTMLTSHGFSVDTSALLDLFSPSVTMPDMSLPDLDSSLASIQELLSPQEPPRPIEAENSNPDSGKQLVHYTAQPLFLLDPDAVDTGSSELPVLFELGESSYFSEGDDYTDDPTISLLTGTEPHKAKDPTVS

[11] = target: T4, Adenosylmethionine-8-amino-7-oxononanoate aminotransferase (Mycobacterium tuberculosis, UniProt P9WQ81); assay: Mycobacterium tuberculosis BioA enzyme inhibitor Measured in Biochemical System Using Plate Reader - 2163-02_Inhibitor_Dose_CherryPick_Activity.; type: functional, Mycobacterium tuberculosis UT205
T4 sequence (P9WQ81 whole entry): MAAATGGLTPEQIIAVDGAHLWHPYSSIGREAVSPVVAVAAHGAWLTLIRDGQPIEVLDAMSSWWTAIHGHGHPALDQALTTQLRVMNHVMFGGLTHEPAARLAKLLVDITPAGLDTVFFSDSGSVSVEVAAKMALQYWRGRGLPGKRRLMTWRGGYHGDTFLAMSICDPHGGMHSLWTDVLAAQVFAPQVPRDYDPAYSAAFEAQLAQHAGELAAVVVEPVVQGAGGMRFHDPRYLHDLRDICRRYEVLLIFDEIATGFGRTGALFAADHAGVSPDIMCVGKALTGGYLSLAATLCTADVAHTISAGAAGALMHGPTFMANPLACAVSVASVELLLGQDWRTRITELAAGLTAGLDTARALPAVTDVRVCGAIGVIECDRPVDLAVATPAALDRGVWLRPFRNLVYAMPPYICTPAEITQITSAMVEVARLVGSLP

CAAX prenyl protease 2 = target: T5, CAAX prenyl protease 2 (Saccharomyces cerevisiae S288c, UniProt Q03530); type: biochemical
T5 sequence (Q03530 whole entry): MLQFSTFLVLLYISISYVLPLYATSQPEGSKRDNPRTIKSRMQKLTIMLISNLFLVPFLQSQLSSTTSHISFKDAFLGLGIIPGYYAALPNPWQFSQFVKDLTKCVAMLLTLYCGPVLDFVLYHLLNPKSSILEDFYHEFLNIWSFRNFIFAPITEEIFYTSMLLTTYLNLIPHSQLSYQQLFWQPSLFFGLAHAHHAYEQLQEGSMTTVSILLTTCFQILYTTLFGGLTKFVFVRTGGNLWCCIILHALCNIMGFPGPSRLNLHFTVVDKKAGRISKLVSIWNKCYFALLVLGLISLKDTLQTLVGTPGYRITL

[12] = target: T6, Replicative DNA helicase DnaB (Mycobacterium tuberculosis, UniProt P9WMR3); assay: DnaB intein splicing inhibitors, dose response, biochemical, cell-free fluorescence (AID 449749); type: functional
T6 sequence (P9WMR3 whole entry): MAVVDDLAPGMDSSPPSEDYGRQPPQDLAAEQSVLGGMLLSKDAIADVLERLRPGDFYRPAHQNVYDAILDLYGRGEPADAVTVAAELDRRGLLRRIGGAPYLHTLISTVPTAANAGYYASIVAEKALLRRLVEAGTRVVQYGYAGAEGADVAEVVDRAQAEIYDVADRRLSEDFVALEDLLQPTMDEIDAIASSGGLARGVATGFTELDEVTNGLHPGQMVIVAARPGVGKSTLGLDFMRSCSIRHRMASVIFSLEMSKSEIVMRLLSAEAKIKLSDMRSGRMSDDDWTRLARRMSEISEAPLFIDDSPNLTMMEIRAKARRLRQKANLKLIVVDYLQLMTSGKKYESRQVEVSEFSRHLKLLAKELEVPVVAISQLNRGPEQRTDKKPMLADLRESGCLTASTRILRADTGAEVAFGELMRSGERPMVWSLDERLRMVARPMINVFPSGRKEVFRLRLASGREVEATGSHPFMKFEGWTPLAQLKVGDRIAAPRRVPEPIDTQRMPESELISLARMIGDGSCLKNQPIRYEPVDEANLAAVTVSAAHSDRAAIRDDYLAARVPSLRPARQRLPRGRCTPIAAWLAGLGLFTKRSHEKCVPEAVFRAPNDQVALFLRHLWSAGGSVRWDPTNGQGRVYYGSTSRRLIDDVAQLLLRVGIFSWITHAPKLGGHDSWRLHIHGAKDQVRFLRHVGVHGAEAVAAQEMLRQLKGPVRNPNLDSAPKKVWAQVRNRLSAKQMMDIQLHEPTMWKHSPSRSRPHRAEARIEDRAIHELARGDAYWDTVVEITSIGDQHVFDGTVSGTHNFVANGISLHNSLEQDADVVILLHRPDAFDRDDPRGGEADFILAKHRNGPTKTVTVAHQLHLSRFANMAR

[13] = fluconazole-exposed Candida albicans growth modulators – fluorescence, retest, confirmation (AID 2467); type: functional, cell-based
Protein RecA = target: T7, Protein RecA (Mycobacterium tuberculosis, UniProt P9WHJ3); assay: Fluorescence Cell-Free Homogeneous Dose Retest to Identify Inhibitors of RecA-Intein Splicing Activity. [Related pubchem assays (depositor defined):AID2097, AID2223, AID489010, AID492950]; type: functional
T7 sequence (P9WHJ3 whole entry): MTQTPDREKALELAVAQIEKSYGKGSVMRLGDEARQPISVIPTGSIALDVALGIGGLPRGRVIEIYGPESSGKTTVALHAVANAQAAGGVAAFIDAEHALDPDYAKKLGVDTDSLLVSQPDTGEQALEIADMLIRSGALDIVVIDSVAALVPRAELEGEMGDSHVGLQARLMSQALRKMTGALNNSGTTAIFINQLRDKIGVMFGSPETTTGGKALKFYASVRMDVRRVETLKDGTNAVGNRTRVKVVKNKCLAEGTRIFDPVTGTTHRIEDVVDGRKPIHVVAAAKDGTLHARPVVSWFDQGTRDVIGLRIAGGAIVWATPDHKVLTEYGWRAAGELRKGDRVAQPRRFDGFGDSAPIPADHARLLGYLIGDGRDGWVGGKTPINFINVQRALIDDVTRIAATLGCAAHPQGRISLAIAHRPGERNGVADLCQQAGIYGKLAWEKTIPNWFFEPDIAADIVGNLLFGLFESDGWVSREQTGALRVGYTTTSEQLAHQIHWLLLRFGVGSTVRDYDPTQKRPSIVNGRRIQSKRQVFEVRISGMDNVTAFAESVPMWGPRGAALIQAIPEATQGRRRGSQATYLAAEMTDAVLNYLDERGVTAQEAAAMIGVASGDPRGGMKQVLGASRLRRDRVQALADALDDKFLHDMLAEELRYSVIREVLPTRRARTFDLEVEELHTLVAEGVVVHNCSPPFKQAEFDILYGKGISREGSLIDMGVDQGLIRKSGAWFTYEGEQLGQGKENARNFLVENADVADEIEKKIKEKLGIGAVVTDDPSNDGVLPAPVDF

[14] = NIH-3T3 fibroblast cytotoxicity, dose response, cytotoxicity control, cell-based, fluorescence, Alamar Blue, secondary assay (AID 2327); type: functional;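 note: NIH-3T3 mouse fibroblasts cultured with fluconazole at 8 µg/mL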
HEK293 = assay: EBV LMP1 TES2 canonical NF-kB signalling blockers – cell-based, HEK293, luciferase, cherry-pick, dose response (AID 588343); type: functional; conditions: Homo sapiens

With `Cc1cc2oc3c(c(=O)c2cc1C)C(c1cccc(Br)c1)N(Cc1ccco1)C3=O` (stereo not drawn) the EC50 [1] was > 20 µM (not active), the EC50 [2] was 9.43 µM (active) and the EC50 [3] was > 20 µM (not active). The EC50 [4] was 8.39 µM (active).
With `COc1ccc(N=C(S)Nc2ccccn2)c(OC)c1` the EC50 (cells [5]) was 53.6 µM (active) and the EC50 (cells [6]) was > 350 µM (not active).
With `O=C(NCCO)c1nsnc1NCCCl` the IC50 (Galanin receptor type 3) was > 29.9 µM (inactive) and the EC50 (cells [7]) was > 29.9 µM (inactive).
In the case of `COc1cc(/C=N/NC(=O)c2cncc(Br)c2)cc([N+](=O)[O-])c1O`, the IC50 (Nonstructural protein 1) is reported as 4.26 µM (active), the IC50 (Fatty acid synthase [8]) is reported as 9.66 µM (active) and the IC50 (Fatty acid synthase [9]) is reported as 18.7 µM (active). The EC50 [10] was 0.977 µM (active).
With `O=C(c1ccccc1F)N1CC[C@@H]2[C@H](CO)Nc3ccc(Br)cc3[C@@H]21` the AC50 [11] was 1.81 µM (active).
In the case of `CCOc1ccc(-c2c(C(=O)N/N=C/c3cccs3)nnn2-c2nonc2N)cc1`, the AC50 (CAAX prenyl protease 2) is reported as 5.5 µM (active).
For `CCN(CC)c1ccc(/C=N/Nc2nc(C)cc(O)n2)c(O)c1`, the AC50 [12] was > 380 µM (inactive), the EC50 [13] was 1.09 µM (active) and the EC50 (cells [5]) was > 350 µM (not active). For the same compound, the EC50 (Protein RecA) was 28 µM (active), the EC50 [14] was 3.13 µM (active) and the EC50 (cells [6]) was 6.92 µM (active). The AC50 (HEK293) was 1.75 µM (active).
In the case of `COc1cccc(/C=N/NC(=O)CNC(=O)C(c2ccccc2)c2ccccc2)c1O`, the EC50 (cells [5]) is reported as > 350 µM (not active) and the EC50 (cells [6]) is reported as 30.6 µM (active).
